Test system: Myo7a+ hair cells and Sox2+ cells in sisomicin-damaged rat cochlear organoids
Experiment: Rat cochlear organoids after sisomicin damage
Type: cell-based
Method: On day 0, the cochlear sensory epithelium was dissected and the OC was separated from the modiolus and stria vascularis, as described above, from either Wistar rat pups (P2), Lgr5-GFP mice (P0–P2) or Atoh1-GFP mice (P0–P2). To separate the sensory epithelial layer from underlying mesenchyme and neurons, the OC was placed in a 100 μl drop of Matrisperse Cell Recovery Solution (Corning) for 1 h at RT, then delaminated with the aid of forceps. Gentle enzymatic dissociation of hair cells and supporting cells followed with 100 μl drop of TrypLE (Gibco), 20 min at 37°C, then mechanical trituration in DMEM/F12. The cell suspension was centrifuged for 5 min at 500 g at 4°C and resuspended in DMEM/F12 medium supplemented with B27 and N2 (Invitrogen), EGF (50 ng/ml), bFGF (50 ng/ml), IGF (25 ng/ml), CHIR99021 (GSK-3β inhibitor, 3 μM, Merck), valproic acid (HDAC inhibitor, 1 mM, Sigma), 2-phospho-L-ascorbic acid (280 μM, Stemcell Technologies) and 0.01% ampicillin (Sigma). Cells were plated at 2,000 cells per well on 96 wells plate (Corning Costar; ultra-low attachment, round-bottom) to allow aggregation at 37°C. On day 1, Matrigel (GF-depleted, Corning; 2% stock) was added to a final concentration of 0.18 mg/ml. […]
For staining and imaging, organoids were allowed to adhere ON onto transwell-permeable support membranes (Corning) in 12-well plates coated with 100% Matrigel. […] Compiled Z-projections were processed (FIJI, ver2.0) and hair cells quantified on individual planes with manual cell counter plugin, by evaluation of cytosolic expression and nuclear exclusion of Myo7a. […]
Finally, the regenerative potential of CPD3 was assessed with rat cochlear organoids testing the efficacy of CPD3 to transdifferentiate any remaining supporting cells after ototoxic damage. […] A decrease in Myo7a+ hair cells was detected 7 days following sisomicin damage (Figure 6D). […]

## COc1ccc2c(c1)N1CCC(C)(C)C1=CC(=O)[C@H]2NC(=O)[C@H](C)NC(=O)CCC(F)(F)F [CPD3]
After sisomicin damage
  Total number of Sox2 positive cells in the organoid: did not change
After sisomicin damage, p < 0.001
  Number of Myo7a+/Sox2+ hair cells: did increase
Sisomicin 500 μM 2 h at day 20, 7 days culture, vs sisomicin only, p < 0.001
  Myo7a+ hair cells after sisomicin damage: significant increase
